Measurements taken from paper PMC5762315, “Inhibition of polo-like kinase 4 (PLK4): a new therapeutic option for rhabdoid tumors and pediatric medulloblastoma” (Oncotarget, 2017).
Where “and” joins values, the source holds several entries; their conditions need not be identical. Equal entries are not always repeated.

Assays:
Assay in all cases: biochemical
Type in all cases: biochemical
various kinases [1] = biological target: various kinases (Homo sapiens, UniProt O75582); conditions: kinase RPS6KA5 (MSK1); ZLYTE
various kinases (Homo sapiens, UniProt O75582), sequence (O75582 whole entry): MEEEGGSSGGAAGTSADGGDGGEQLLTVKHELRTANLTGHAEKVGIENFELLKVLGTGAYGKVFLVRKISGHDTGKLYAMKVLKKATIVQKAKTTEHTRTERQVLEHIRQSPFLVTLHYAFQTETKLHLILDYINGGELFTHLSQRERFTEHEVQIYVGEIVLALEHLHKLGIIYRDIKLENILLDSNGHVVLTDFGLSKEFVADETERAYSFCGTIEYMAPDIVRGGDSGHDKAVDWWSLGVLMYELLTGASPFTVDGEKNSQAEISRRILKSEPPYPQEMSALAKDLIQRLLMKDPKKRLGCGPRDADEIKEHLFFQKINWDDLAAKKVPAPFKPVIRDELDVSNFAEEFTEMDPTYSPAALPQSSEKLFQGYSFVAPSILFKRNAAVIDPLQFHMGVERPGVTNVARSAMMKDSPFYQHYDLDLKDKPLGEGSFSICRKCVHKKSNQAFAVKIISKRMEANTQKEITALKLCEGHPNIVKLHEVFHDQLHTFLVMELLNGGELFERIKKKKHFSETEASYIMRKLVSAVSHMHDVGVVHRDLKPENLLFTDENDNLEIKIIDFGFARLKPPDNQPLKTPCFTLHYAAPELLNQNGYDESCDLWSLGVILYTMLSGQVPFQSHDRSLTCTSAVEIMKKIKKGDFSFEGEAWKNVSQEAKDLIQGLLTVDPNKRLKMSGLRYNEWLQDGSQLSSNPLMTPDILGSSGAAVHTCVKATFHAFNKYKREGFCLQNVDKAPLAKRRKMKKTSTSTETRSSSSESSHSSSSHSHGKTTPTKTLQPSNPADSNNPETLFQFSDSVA

various kinases [2] = biological target: various kinases (Homo sapiens, UniProt O75676); conditions: kinase RPS6KA4 (MSK2); ZLYTE
various kinases (Homo sapiens, UniProt O75676), sequence (O75676 whole entry): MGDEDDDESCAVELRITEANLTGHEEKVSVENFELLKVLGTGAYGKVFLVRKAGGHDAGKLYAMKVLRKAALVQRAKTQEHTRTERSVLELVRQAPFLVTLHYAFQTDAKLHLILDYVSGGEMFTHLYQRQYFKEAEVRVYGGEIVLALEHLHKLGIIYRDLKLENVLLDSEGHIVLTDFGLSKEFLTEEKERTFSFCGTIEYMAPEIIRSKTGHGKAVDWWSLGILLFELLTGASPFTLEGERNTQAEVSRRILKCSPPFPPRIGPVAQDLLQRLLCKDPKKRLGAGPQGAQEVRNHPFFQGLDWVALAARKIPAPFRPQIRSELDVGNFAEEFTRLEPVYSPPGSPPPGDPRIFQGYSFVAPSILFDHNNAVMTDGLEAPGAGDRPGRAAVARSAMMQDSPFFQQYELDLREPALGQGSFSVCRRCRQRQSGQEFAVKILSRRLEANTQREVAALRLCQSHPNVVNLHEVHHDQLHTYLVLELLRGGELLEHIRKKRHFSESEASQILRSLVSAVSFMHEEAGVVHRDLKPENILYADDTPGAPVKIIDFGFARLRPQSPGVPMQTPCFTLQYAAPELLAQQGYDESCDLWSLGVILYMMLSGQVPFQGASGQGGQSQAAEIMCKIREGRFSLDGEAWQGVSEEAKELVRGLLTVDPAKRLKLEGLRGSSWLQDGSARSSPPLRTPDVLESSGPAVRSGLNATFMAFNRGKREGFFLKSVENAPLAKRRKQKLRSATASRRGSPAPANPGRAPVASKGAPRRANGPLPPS

various kinases [3] = biological target: T1, various kinases (Homo sapiens, UniProt O94806); conditions: kinase PRKCN (PKD3); ZLYTE
T1 sequence (O94806 1-890): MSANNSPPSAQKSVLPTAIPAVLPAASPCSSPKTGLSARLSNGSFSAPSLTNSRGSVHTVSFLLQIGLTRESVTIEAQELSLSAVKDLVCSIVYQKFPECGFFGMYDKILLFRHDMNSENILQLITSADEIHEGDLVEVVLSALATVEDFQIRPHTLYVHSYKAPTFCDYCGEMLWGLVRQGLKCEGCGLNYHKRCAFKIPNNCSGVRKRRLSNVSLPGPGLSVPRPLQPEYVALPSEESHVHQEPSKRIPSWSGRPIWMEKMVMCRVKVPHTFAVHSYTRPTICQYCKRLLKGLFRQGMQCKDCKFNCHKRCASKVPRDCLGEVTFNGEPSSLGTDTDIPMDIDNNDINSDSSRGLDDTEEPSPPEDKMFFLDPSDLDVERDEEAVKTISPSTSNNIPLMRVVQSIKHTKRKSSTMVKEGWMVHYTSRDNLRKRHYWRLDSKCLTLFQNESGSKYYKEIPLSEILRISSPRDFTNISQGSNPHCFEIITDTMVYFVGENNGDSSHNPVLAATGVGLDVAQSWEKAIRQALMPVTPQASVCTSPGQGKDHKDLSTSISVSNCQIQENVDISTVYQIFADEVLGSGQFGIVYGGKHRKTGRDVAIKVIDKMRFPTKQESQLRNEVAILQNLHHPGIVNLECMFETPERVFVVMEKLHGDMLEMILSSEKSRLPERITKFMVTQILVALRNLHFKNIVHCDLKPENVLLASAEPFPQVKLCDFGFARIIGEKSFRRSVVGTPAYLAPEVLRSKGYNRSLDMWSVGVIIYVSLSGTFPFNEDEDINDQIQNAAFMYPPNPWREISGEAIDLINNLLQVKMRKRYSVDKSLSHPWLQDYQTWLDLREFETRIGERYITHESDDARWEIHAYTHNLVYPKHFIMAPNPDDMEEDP

various kinases [4] = biological target: various kinases (Homo sapiens, UniProt O95819); conditions: MAP4K4 (HGK)
various kinases [5] = biological target: various kinases (Homo sapiens, UniProt P00519, F317I); conditions: ABL1 F317I
various kinases [6] = biological target: various kinases (Homo sapiens, UniProt P04049, Y340D/Y341D); conditions: kinase RAF1 (cRAF) Y340D Y341D; ZLYTE
various kinases (Homo sapiens, UniProt P04049, Y340D/Y341D), sequence (P04049 whole entry Y340D/Y341D): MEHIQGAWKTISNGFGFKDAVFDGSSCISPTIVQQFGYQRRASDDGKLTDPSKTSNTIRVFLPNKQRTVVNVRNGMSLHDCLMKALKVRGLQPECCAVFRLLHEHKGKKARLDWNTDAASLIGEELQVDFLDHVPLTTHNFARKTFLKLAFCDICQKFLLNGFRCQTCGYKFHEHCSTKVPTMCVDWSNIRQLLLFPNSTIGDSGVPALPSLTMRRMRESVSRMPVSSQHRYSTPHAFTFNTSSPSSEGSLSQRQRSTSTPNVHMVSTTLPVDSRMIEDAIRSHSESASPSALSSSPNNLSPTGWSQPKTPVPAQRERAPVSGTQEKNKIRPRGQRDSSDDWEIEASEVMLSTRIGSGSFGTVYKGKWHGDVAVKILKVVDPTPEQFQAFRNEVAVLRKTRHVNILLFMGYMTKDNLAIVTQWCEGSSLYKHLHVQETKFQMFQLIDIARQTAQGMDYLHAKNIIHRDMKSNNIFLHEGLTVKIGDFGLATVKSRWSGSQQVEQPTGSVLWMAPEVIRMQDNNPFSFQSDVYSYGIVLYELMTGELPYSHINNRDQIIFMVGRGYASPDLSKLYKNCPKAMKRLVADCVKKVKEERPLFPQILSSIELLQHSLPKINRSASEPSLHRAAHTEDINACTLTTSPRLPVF

various kinases [7] = biological target: various kinases (Homo sapiens, UniProt P06241); conditions: FYN
various kinases (Homo sapiens, UniProt P06241), sequence (P06241 whole entry): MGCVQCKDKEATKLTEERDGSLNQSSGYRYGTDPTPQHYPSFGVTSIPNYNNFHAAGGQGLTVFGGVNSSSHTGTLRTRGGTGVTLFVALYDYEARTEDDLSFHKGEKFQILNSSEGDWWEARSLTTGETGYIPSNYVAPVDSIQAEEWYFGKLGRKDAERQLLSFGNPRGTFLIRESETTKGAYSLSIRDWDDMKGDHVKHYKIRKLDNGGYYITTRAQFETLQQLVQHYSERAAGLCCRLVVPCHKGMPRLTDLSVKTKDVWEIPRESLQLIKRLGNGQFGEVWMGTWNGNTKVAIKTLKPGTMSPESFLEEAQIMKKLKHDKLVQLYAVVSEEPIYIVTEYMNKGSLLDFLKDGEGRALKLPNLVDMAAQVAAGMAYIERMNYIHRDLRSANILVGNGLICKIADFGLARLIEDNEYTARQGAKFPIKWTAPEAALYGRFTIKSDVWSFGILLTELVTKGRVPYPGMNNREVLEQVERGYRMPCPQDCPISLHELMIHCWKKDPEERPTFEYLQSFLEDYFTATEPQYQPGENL

various kinases [8] = biological target: various kinases (Homo sapiens, UniProt P07947); conditions: kinase YES1; ZLYTE
various kinases (Homo sapiens, UniProt P07947), sequence (P07947 whole entry): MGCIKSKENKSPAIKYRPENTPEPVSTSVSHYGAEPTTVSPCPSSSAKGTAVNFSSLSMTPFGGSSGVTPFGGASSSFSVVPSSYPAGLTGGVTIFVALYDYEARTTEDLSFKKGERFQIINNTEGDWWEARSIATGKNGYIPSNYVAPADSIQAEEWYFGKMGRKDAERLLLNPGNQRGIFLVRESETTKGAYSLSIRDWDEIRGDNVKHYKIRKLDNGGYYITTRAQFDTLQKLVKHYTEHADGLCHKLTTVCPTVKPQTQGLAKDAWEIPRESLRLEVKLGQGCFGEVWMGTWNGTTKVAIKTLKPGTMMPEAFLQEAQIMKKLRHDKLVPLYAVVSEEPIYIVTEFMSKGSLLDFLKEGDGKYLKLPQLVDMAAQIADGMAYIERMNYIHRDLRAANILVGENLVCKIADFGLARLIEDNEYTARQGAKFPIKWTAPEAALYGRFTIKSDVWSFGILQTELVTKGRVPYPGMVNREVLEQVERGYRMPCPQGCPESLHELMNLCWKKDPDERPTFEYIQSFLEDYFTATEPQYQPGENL

various kinases [9] = biological target: various kinases (Homo sapiens, UniProt P07949, A883F); conditions: kinase RET A883F; ZLYTE
various kinases (Homo sapiens, UniProt P07949, A883F), sequence (P07949 29-1114 A883F): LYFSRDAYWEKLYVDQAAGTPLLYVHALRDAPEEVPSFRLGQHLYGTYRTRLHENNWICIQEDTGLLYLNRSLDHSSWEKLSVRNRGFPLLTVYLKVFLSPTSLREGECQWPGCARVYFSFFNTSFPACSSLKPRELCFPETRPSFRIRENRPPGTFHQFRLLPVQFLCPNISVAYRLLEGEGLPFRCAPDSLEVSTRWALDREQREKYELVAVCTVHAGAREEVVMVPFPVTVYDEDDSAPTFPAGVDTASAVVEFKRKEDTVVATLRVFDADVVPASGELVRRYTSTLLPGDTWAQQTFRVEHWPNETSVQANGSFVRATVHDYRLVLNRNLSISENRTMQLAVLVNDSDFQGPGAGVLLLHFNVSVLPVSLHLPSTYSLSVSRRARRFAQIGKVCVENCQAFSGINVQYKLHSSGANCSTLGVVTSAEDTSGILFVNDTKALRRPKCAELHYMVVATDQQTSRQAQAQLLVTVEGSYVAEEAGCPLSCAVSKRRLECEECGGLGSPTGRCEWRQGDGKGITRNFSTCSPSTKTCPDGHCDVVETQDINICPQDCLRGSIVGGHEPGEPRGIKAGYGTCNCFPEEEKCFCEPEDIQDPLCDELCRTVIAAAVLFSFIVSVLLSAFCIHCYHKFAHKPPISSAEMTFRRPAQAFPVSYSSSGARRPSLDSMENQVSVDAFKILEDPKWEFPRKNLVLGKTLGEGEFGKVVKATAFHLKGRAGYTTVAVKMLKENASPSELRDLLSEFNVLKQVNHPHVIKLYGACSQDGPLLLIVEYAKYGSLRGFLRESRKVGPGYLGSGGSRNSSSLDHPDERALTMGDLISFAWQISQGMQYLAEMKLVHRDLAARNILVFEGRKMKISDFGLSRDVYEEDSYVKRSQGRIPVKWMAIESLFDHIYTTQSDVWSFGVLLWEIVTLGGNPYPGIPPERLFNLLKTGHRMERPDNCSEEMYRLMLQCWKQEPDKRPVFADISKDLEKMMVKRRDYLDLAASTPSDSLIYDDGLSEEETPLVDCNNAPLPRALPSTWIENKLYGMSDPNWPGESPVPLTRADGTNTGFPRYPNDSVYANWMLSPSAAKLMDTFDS

various kinases [10] = biological target: various kinases (Homo sapiens, UniProt P22455); conditions: FGFR4
various kinases [11] = biological target: various kinases (Homo sapiens, UniProt P32298); conditions: GRK4
various kinases [12] = biological target: various kinases (Homo sapiens, UniProt P53779); conditions: MAPK10 (JNK3)
various kinases [13] = biological target: various kinases (Homo sapiens, UniProt Q05655); conditions: kinase PRKCD (PKC delta); ZLYTE
various kinases (Homo sapiens, UniProt Q05655), sequence (Q05655 whole entry): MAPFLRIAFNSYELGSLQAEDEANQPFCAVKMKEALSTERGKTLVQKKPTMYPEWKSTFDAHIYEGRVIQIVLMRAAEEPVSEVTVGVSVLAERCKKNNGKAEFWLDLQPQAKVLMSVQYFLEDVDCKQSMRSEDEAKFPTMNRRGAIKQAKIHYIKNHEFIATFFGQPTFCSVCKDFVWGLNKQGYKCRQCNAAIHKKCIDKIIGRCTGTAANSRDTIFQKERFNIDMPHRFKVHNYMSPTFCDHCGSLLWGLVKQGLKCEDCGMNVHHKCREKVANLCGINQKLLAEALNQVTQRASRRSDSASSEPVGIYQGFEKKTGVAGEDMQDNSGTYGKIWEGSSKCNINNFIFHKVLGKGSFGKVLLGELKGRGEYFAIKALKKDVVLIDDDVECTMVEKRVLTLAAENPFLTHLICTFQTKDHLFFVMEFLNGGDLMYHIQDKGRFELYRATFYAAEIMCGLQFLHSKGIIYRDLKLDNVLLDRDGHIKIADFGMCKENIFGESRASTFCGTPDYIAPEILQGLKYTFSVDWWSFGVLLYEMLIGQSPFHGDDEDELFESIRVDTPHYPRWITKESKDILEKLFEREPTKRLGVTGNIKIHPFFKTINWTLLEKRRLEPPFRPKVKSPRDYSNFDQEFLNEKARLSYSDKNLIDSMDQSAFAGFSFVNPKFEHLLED

various kinases [14] = biological target: various kinases (Homo sapiens, UniProt Q08881); conditions: ITK
various kinases [15] = biological target: various kinases (Homo sapiens, UniProt Q14164); conditions: IKBKE (IKK epsilon)
various kinases [16] = biological target: various kinases (Homo sapiens, UniProt Q6VAB6); conditions: KSR2
various kinases [17] = biological target: various kinases (Homo sapiens, UniProt Q8IU85); conditions: CAMK1D (CaMKI delta)
various kinases [18] = biological target: various kinases (Homo sapiens, UniProt Q9H0K1); conditions: kinase SNF1LK2; ZLYTE
various kinases [19] = biological target: various kinases (Homo sapiens, UniProt Q9H422); conditions: HIPK3 (YAK1)
various kinases [20] = biological target: various kinases (Homo sapiens, UniProt Q9H792); conditions: PEAK1
various kinases [21] = biological target: various kinases (Homo sapiens, UniProt Q9NWZ3); conditions: IRAK4

**Q.** What does the source list for COc1ccc2c(c1)[C@]1(C[C@H]1c1ccc3c(/C=C/c4ccc(CN5C[C@@H](C)O[C@@H](C)C5)cc4)n[nH]c3c1)C(=O)N2 [CFI-400945]?
**A.** % Inhibition Average (various kinases [1]): 3%; % Inhibition Duplicate #1 (various kinases [1]): 2%; % Inhibition Duplicate #2 (various kinases [1]): 4%; % Inhibition Average (various kinases [2]): 0%; % Inhibition Duplicate #1 (various kinases [2]): -2%; % Inhibition Duplicate #2 (various kinases [2]): 3%; % Inhibition Average (various kinases [3]): 4%; % Inhibition Duplicate #1 (various kinases [3]): 3%; % Inhibition Duplicate #2 (various kinases [3]): 4%; % Inhibition (various kinases [4]): 9% and 13%; % Inhibition (various kinases [5]): 4% and 5%; % Inhibition Average (various kinases [6]): 12%; % Inhibition Duplicate #1 (various kinases [6]): 10%; % Inhibition Duplicate #2 (various kinases [6]): 14%; % Inhibition (various kinases [7]): 6% and 5%; % Inhibition Average (various kinases [8]): 17%; % Inhibition Duplicate #1 (various kinases [8]): 16%; % Inhibition Duplicate #2 (various kinases [8]): 18%; % Inhibition Average (various kinases [9]): 7%; % Inhibition Duplicate #1 (various kinases [9]): 9%; % Inhibition Duplicate #2 (various kinases [9]): 4%; % Inhibition (various kinases [10]): 10% and 16%; % Inhibition (various kinases [11]): 1% and -1%; % Inhibition (various kinases [12]): 5%; % Inhibition Average (various kinases [13]): -2%; % Inhibition Duplicate #1 (various kinases [13]): -8%; % Inhibition Duplicate #2 (various kinases [13]): 4%; % Inhibition (various kinases [14]): 56% and 53%; IC50 (various kinases [14]): 200 nM; % Inhibition (various kinases [15]): -1% and 1%; % Inhibition (various kinases [16]): 3% and 4%; % Inhibition (various kinases [17]): -5% and 0%; % Inhibition Average (various kinases [18]): 5%; % Inhibition Duplicate #1 (various kinases [18]): 4%; % Inhibition Duplicate #2 (various kinases [18]): 5%; % Inhibition (various kinases [19]): 2% and 3%; % Inhibition (various kinases [20]): 5% and 11%; % Inhibition (various kinases [21]): 0% and -3%
